What was measured:
[1] = system: Human Peripheral Blood Lymphocytes (hPBLs); experiment: Cytotoxicity on human peripheral blood lymphocytes (MTS); assay type: cell-based; conditions: 0-100 μM tested, 24 hours, FIG. 4
Experimental: Viability was assessed by cell proliferation assay (MTS). % of cell viability was determined using the CellTiter 96® AQueous Non-Radioactive Cell Proliferation Assay (Promega). Data represent the quantitative analysis of six independent experiments with means±SD (n=6 individuals).

[2] = system: Human endothelial cells (HAEC); experiment: In vitro hypoxic cold storage viability assay; assay type: cell-based
Experimental: Human endothelial cells (HAEC) were grown to confluence, then synchronized using depleted media for 16h. For hypothermia/hypoxia, cells were washed twice with PBS then incubated in University of Wisconsin (UW) solution in 95% N2/5% CO2 atmosphere at 4° C. for 24 hours. […] Shown are mean+/−SD, n=3. UW are cells treated only with UW preservation solution. Controls are cells not subjected to this protocol (cells are continuously oxygenated) but cultivated for the same amount of time in regular culture conditions. […] It should be noted that the hypoxic cold storage mimics the process occurring during graft preservation.

[3] = molecular target: T1, Human RIPK1 full length GST-tagged (Homo sapiens, UniProt Q13546); experiment: RIPK1 autophosphorylation assay; assay type: biochemical
T1 construct: Human RIPK1 full length GST-tagged; made in house; host or cells: Sf9 insect cells (baculovirus, Bac-to-Bac)
T1 sequence (Q13546 1-671): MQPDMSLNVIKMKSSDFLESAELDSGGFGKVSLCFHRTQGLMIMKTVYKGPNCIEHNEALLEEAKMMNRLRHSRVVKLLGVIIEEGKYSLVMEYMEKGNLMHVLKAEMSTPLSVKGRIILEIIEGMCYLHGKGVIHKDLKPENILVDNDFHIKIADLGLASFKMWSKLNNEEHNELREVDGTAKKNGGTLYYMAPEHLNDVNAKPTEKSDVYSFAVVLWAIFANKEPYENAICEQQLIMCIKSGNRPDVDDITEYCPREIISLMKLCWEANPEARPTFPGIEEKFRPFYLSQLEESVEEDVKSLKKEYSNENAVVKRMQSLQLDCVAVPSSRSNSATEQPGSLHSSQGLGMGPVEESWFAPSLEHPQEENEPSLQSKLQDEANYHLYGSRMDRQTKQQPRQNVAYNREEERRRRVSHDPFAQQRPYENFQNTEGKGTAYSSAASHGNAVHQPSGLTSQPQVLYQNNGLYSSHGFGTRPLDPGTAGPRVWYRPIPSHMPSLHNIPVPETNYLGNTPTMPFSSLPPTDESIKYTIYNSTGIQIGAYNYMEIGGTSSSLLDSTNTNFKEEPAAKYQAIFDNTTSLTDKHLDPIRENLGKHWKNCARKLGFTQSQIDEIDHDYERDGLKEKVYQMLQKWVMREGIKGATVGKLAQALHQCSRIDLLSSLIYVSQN
Experimental: RIPK1 Autophosphorylation Assay: • Human RIPK1 full length GST-tagged was baculovirally expressed in Sf9 cells according to manufacturer's instructions (Bac-to-Bac expression system, Invitrogen) and purified using gluthation-sepharose beads (GE Healthcare). The elution was made in 50 mM Tris-HCl, pH 8.0 buffer supplemented with 30 mM reduced gluthathione (Sigma). The protocol used to detect the enzymatic activity is adapted from Miao and Degterev (Methods Mol. Biol. 2009, 559, 79-93). Kinase reaction was initiated mixing 5 μl of eluted RIPK1, 5 μl of 3X kinase reaction buffer (5 mM MOPS pH 7.2, 2.5 mM β-glycerophosphate, 4 mM MgCl2, 2.5 mM MnCl2, 1 mM EGTA, 0.4 mM EDTA, 50 μg/ml BSA, 0.05 mM DTT), 2 μl H2O and 3 μl of the tested molecule. The mixture was kept on ice for 10 minutes. […] ATP. The ATP solution and the tested inhibitor were added to the kinase and incubated for 30 minutes at 30° C. To stop the enzymatic reaction, 5 μl of loading buffer were added and solution was heated for 3 minutes at 95° C. 25 μl of each reaction were loaded per well in pre-cast NuPage 12% Bis-Tris gel (Life Technology). Necrostatin-1, a well-described inhibitor of RIPK1, was used as an internal control. Coomassie staining was performed in order to estimate the total amount of protein loaded on polyacrylamide gel. […]

[4] = system: Porcine LLC-PK1 cells (kidney proximal tubule cell line); experiment: Cold-induced cell death (cold storage), MTS viability assay; assay type: cell-based; conditions: 24 hours at 4° C.
Experimental: At it was previously shown (Ahlenstiel et al. Transplantation […], 81(2), 231-239), cold storage induces a cell-death process. Porcine LLC-PK1 cells (kidney proximal tubule cell line) were stored at approximately 4° C. during 24 hours with or without the tested molecules. […] Cells were then incubated at 37° C., 5% CO2 before performing MTS viability assay. Cell viability was monitored using CellTiter 96® AQueous Non-Radioactive Cell Proliferation Assay (Promega, Fitchburg, WI, USA), based on the water-soluble tetrazolium compound MTS (3-[4,5-dimethylthiazol-2-yl]-5-[3-carboxymethoxy-phenyl]-2-[4-sulfophenyl]-2H-tetrazolium, inner salt) according to the manufacturers instructions.

[5] = system: Murine hippocampal neuronal cell line HT22; experiment: L-glutamate-induced oxytosis in HT22 cells, MTS viability assay; assay type: cell-based; conditions: 10 mM L-glutamate, 24 hours, FIG. 14
Experimental: Murine hippocampal neuronal cell line HT22 was treated with 10 mM of (L)-glutamate (oxytosis initiator) or 1 μM erastin (ferroptosis initiator).
Cells were then incubated at 37° C., 5% CO2 for 24 hours before performing MTS viability assay. Cell viability was monitored using CellTiter 96® AQueous Non-Radioactive Cell Proliferation Assay (Promega, Fitchburg, WI, USA), based on the water-soluble tetrazolium compound MTS (3-[4,5-dimethylthiazol-2-yl]-5-[3-carboxymethoxy-phenyl]-2-[4-sulfophenyl]-2H-tetrazolium, inner salt) according to the manufacturers instructions.

[6] = system: Jurkat FADD-deficient I 2.1 cells; experiment: Hallmarks of TNF-α-induced necroptosis (plasma membrane permeabilization, intracellular ATP) in Jurkat FADD-deficient cells; assay type: cell-based, human; conditions: 0-50 μM, TNF-α 10 ng/ml, 24 hours
Experimental: Cells untreated by TNF-α are used as control (light grey curves). Cells were incubated at 37° C., 5% CO2 for 24 hours before performing the measurements of both plasma membrane permeabilization and intracellular ATP levels. Dead cells were detected by FACS analysis of Propidium Iodide-stained nuclei (FIG. 2). ATP Quantification is performed using the CellTiter-Glo® Luminescent Cell Viability Assay. The luminescent signal produced by a luciferase reaction is proportional to the amount of ATP present and the amount of ATP is directly proportional to the number of metabolically active cells (n=4) (FIG. 3).

## COc1cc(O)c2c(c1)OC(O)(c1ccc(OCc3ccccc3)cc1)CC2=O (centres unmarked) [compound 1]
[1]
  concentration up to which not cytotoxic towards hPBLs: ≤ 20 µM
[2]; UW solution, 95% N2/5% CO2, 4° C., 24 hours, FIG. 10
  cell survival, treatment during hypoxia: measurable benefits on cell survival
[2]; UW solution, 95% N2/5% CO2, 4° C., 24 hours, then reoxygenation, FIG. 11
  cell survival, treatment during hypoxia and reoxygenation: measurable benefits on cell survival
[2]; hypoxic cold storage
  effect on cell survival compared to the control inhibitors of necroptosis (Nec-1 and Nec-1s): significantly better
[3]; [γ-32P] ATP, 30 minutes at 30° C., FIG. 6
  inhibition of RIPK1 autophosphorylation: inhibits the RIPK1 autophosphorylation in a dose-dependent way
[3]; high ATP concentrations (e.g. 1 mM), FIG. 7
  effect of high ATP concentrations on inhibition of RIPK1 auto-phosphorylation: not affected
[4]; 0.01-50.00 μM, FIGS. 16a, 16b
  protection from death induced by cold storage: protects cells from death induced by cold storage
[4]
  concentration of maximal activity against cold-induced cell death: 504
[5]
  concentration that protects cells from death induced by L-glutamate: > 25 µM
[6]; FIG. 2
  plasma membrane permeabilization induced by TNF-α (Propidium Iodide, FACS): inhibits
[6]; FIG. 3
  ATP depletion induced by TNF-α (CellTiter-Glo): inhibits

— US11819492B2, “Natural product derivatives for inhibiting cellular necroptosis, ferroptosis and oxytosis” (Institut National de la Sante et de la Recherche Medicale …, priority 2016, dated 2023)
